Results: ChEMBL document CHEMBL3862026, “Synthesis and biological evaluation of ranitidine analogs as multiple-target-directed cognitive enhancers for the treatment of Alzheimer's disease” (Bioorg Med Chem Lett, 2016)

Assays:
[1] = target: Acetylcholinesterase (Electrophorus electricus, UniProt O42275); assay: Inhibition of electric eel AChE using acetylthiocholine as substrate preincubated for 8 mins followed by substrate addition by Ellman's method
[2] = target: Cholinesterase (Equus caballus, UniProt P81908); assay: Inhibition of equine serum BuChE using butyrylthiocholine as substrate preincubated for 8 mins followed by substrate addition by Ellman's method
[3] = target: T1, Muscarinic acetylcholine receptor M1 (Rattus norvegicus) (UniProt P08482); assay: Displacement of [3H]QNB from muscarinic M1 receptor in rat brain homogenates at 1 uM after 60 mins relative to control; format: tissue-based
T1 sequence (whole entry): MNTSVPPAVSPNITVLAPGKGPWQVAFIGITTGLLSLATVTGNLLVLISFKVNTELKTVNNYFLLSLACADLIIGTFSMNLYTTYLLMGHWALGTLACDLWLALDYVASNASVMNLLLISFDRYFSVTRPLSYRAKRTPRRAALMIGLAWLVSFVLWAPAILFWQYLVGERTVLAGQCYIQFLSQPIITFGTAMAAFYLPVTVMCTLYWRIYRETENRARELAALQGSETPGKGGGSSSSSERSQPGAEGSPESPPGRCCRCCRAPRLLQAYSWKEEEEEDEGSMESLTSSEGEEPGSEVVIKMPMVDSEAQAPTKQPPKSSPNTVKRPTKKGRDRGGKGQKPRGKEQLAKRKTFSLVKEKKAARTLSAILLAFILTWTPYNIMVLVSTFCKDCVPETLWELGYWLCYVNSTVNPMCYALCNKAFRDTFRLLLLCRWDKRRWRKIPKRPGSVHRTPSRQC

[4] = target: T2, Muscarinic acetylcholine receptor M2 (Rattus norvegicus) (UniProt P10980); assay: Displacement of [3H]QNB from muscarinic M2 receptor in rat brain homogenates at 1 uM after 60 mins relative to control; format: tissue-based
T2 sequence (whole entry): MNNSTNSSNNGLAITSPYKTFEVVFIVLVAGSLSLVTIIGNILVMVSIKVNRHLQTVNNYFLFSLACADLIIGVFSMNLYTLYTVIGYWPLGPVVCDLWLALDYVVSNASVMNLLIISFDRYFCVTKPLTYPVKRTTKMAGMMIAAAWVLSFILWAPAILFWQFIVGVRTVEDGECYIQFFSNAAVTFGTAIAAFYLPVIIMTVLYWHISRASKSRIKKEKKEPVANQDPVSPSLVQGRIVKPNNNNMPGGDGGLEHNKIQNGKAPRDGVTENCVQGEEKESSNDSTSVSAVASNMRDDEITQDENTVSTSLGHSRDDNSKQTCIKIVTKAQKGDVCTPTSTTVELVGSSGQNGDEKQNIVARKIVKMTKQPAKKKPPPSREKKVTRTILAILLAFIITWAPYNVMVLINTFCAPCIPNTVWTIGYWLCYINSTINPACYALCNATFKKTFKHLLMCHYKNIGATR

[5] = target: Muscarinic acetylcholine receptor M3 (Rattus norvegicus) (UniProt P08483); assay: Displacement of [3H]QNB from muscarinic M3 receptor in rat brain homogenates at 1 uM after 60 mins relative to control; format: tissue-based
[6] = target: T3, Muscarinic acetylcholine receptor M4 (Rattus norvegicus) (UniProt P08485); assay: Displacement of [3H]QNB from muscarinic M4 receptor in rat brain homogenates at 1 uM after 60 mins relative to control; format: tissue-based
T3 sequence (whole entry): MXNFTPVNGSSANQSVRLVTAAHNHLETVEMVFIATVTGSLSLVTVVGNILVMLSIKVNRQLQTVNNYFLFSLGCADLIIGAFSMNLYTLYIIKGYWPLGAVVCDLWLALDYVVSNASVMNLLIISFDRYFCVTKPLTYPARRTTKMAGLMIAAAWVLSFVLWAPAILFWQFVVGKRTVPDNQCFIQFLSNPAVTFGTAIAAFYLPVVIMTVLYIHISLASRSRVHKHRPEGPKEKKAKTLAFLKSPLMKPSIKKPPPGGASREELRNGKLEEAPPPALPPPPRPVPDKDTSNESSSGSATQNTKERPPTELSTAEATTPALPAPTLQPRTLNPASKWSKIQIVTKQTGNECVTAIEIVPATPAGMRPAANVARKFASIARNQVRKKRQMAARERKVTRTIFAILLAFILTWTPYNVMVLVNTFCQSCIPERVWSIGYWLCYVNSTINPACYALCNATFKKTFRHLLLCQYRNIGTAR

Chain of Acetylcholinesterase (O42275 whole entry): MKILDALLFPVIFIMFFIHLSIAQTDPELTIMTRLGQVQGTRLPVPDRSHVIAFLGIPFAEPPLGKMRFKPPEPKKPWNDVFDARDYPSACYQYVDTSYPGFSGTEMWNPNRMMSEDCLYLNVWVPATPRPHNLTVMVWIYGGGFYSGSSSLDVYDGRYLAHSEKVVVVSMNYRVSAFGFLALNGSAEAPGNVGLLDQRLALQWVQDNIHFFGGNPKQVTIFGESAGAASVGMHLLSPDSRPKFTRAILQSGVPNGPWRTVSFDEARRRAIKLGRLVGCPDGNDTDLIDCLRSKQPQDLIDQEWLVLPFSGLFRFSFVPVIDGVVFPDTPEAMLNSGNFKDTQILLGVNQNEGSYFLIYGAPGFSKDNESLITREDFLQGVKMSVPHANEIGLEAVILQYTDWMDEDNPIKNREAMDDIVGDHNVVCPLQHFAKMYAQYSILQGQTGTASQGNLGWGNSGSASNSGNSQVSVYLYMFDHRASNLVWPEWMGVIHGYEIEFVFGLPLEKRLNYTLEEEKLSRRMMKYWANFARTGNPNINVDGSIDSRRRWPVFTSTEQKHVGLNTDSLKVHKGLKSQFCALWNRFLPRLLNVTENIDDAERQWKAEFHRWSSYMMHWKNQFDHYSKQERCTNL
Chain of Cholinesterase (P81908 whole entry): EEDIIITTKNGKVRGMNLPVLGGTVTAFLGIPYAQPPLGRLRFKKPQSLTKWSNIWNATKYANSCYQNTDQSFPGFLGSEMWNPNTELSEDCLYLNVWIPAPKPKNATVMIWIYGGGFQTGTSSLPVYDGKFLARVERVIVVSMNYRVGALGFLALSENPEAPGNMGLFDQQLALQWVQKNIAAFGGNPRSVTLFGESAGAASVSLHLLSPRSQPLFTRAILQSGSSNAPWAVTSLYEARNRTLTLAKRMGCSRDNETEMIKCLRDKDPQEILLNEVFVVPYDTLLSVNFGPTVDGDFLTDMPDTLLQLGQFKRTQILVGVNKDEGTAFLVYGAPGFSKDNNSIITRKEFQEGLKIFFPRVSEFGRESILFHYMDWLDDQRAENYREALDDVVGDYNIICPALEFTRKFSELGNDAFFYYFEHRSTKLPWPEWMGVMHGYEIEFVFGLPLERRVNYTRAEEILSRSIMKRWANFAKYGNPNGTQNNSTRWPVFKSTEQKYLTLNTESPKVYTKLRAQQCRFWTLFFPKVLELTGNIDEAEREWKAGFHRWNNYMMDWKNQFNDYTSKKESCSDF
Chain of Muscarinic acetylcholine receptor M3 (Rattus norvegicus) (P08483 whole entry, looked up): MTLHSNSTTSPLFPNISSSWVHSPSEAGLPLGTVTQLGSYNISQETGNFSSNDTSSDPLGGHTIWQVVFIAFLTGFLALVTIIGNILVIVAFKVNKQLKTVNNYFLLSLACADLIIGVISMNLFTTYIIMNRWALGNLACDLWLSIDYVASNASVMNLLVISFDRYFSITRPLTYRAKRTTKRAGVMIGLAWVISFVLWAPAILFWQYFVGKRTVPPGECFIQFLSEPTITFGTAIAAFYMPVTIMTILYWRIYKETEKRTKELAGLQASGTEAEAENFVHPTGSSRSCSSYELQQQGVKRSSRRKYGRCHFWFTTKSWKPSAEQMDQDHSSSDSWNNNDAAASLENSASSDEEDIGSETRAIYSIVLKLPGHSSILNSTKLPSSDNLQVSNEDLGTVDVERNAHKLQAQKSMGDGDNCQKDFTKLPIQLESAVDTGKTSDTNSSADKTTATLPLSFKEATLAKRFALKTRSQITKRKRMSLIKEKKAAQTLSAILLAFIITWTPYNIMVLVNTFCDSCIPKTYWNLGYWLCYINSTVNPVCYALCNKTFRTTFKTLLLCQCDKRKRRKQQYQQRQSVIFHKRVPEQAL

Row | Structure (SMILES) | IC50 [1] [µM] | IC50 [2] [µM] | inhibition [3] [%] | inhibition [4] [%] | inhibition [5] [%] | inhibition [6] [%]
1 | CN(C)Cc1ccc(CSCCNc2ccc(Cl)nn2)o1 | 10.4 | > 50 | 25.2 | 9.8 | 2.3 | 7.7
2 | CN(C)Cc1ccc(CSCCN2C(=O)c3ccccc3C2=O)o1 | 3.57 | 14.5 | – | – | – | –
3 | CN(C)Cc1ccc(CSCCN2C(=O)c3ccc([N+](=O)[O-])cc3C2=O)o1 | 46 | > 50 | – | – | – | –
4 | CN(C)Cc1ccc(CSCCNc2nc(N)no2)o1 | > 50 | > 50 | 69.9 | 72.8 | 49.8 | 42.7
5 | CN(C)Cc1ccc(CSCCNc2nc(N)n[nH]2)o1 | > 50 | > 50 | 57.4 | 71.3 | 30.1 | 43.6
6 | Cc1nnc(NCCSCc2ccc(CN(C)C)o2)c([N+](=O)[O-])c1C | 2.72 | – | 74 | 63 | 48 | 67
7 | CN(C)Cc1ccc(CSCCNc2nnc(-c3cccs3)c(-c3cccs3)c2[N+](=O)[O-])o1 | 0.35 | 2.28 | – | – | – | –
8 | CN(C)Cc1ccc(CSCCNc2nncc(-c3ccccc3)c2[N+](=O)[O-])o1 | 0.46 | 22.7 | 40 | 37 | 27 | 18
9 | CN(C)Cc1ccc(CSCCN2C(=O)c3cccc4cc([N+](=O)[O-])cc(c34)C2=O)o1 | 0.15 | 8.01 | – | – | – | –
10 | Cc1ccc(S(=O)(=O)NCCSCc2ccc(CN(C)C)o2)cc1 | > 50 | 47.2 | – | – | – | –
11 | Cc1nnc(NCCSCc2ccc(CN(C)C)o2)c([N+](=O)[O-])c1-c1ccccc1 | 0.72 | – | 60 | 40 | 52 | 37
12 | CN(C)Cc1ccc(CSCCN2C(=O)c3cccc4cccc(c34)C2=O)o1 | 1.27 | 7.21 | – | – | – | –
13 | CCc1nnc(NCCSCc2ccc(CN(C)C)o2)c([N+](=O)[O-])c1CC | 2.54 | 18.8 | – | – | – | –
14 | CN(C)Cc1ccc(CSCCN/C(=C/[N+](=O)[O-])N2CCCCC2)o1 | 4.04 | 21.2 | 72.1 | 54 | 41.5 | 47.7
15 | CN(C)Cc1ccc(CSCCNc2nnccc2[N+](=O)[O-])o1 | 0.47 | – | 80 | 97 | 32 | 74
16 | CN(C)Cc1ccc(CSCCNc2ncccn2)o1 | 16.2 | 7.65 | 56.2 | 50.8 | 24.3 | 24.9
17 | Cc1c(-c2ccccc2)nnc(NCCSCc2ccc(CN(C)C)o2)c1[N+](=O)[O-] | 0.16 | 3.71 | 84 | 72 | 63 | 58
18 | CN(C)Cc1ccc(CSCCN/C(=C/[N+](=O)[O-])N/N=C/c2ccccc2)o1 | 1.18 | 2.96 | 88.5 | 67 | 66.6 | 62.3
19 | Cc1cc([N+](=O)[O-])c(NCCSCc2ccc(CN(C)C)o2)nn1 | 0.68 | 28.4 | 79 | 78 | 46 | 57
20 | Cc1cccc(Nc2ccccc2C(=O)NCCSCc2ccc(CN(C)C)o2)c1C | > 50 | > 50 | 77.4 | 50.8 | 69.6 | 33.8
21 | CN(C)Cc1ccc(CSCCNc2nnc(-c3ccccc3)c(-c3ccccc3)c2[N+](=O)[O-])o1 | 0.19 | 7.05 | 76 | 51 | 73 | 48
22 | CN(C)Cc1ccc(CSCCNC(=O)Cc2ccccc2Nc2c(Cl)cccc2Cl)o1 | – | 7.65 | 60.1 | 27.4 | 43.5 | 47.3
23 | CS/C(=N\S(=O)(=O)c1ccc(C)cc1)NCCSCc1ccc(CN(C)C)o1 | > 50 | > 50 | 37.5 | – | 18.5 | 4.2
24 | CN(C)Cc1ccc(CSCCNc2nnc(-c3ccccc3)cc2[N+](=O)[O-])o1 | 0.26 | 4.46 | 40 | 34 | 38 | 16
25 | CN(C)Cc1ccc(CSCCNC(=O)c2ccccc2-c2ccccc2C(=O)O)o1 | > 50 | > 50 | – | – | – | –
26 | C=C1C(C)=NN/C(=C\[N+](=O)[O-])N1CCSCc1ccc(CN(C)C)o1 | 1.65 | 7.1 | 88.8 | 81 | 90.4 | 92.1
27 | CN(C)Cc1ccc(CSCCN2C(=O)CCC2=O)o1 | 11.8 | > 50 | – | – | – | –
28 | CC1CC(=O)N(CCSCc2ccc(CN(C)C)o2)C1=O (stereo not given) | 33.4 | > 50 | – | – | – | –
29 | CN(C)Cc1ccc(CSCCNc2ncccc2C#N)o1 | 5.34 | 8.36 | – | – | – | –
